This note sets out measurements from patent publication US20240165274A1, “METHODS OF DETECTING SYSTEMIC AMYLOIDOSIS VIA BINDING TO MISFOLDED OR AGGREGATED PROTEIN” (Amydis, Inc., priority 2021, published 2024).

SMILES strings stand for the structures.

The target in assay [1] is T1, aggregated TTR (Homo sapiens, UniProt P02766). Kind of assay: Fluorescence spectra of Compound 1 with TTR aggregates. The settings on record: excitation 440 nm; for Fluorescence fold increase: Compound 1 4 μM, emission 565 nm, RFI over Compound 1 alone. How it is done:
Several aggregated TTR samples were prepared using different conditions as described below. • Aggregate A was prepared by resuspending TTR in 50 mM glycine buffer at a pH of about 3.6 and further incubating the same for 24 hours at room temperature. • Aggregate B1 was prepared by resuspending TTR in water at a pH of about 7.4, and further incubating the same for 7 days with stirring (200 rpm) maintained at 37° C. • Aggregate B2 was prepared by resuspending TTR in water at a pH of about 7.4, and further incubating the same for 14 days with stirring (200 rpm) maintained at 37° C.
Compound 1 (4 μM) was prepared with or without Aggregate B1 in 1× phosphate-buffered saline (PBS). The absorption, fluorescence, and excitation spectra were taken for both samples. The excitation wavelength was optimized to be 440 nm. The emission spectra thus received were adjusted against a blank solvent control to obtain relative fluorescence intensity (RFI) as a function of wavelengths.
Further, fluorescence spectra were taken on mixtures of Compound I (4 μM) with Aggregate A, B1, or B2, respectively, each at the concentration of 5 μM, at the emission wavelength of 565 nm, when excited at 440 nm. The increases in RFI over Compound 1 alone were calculated and are illustrated in Table 1: […]

Assay [2] deals with T1, aggregated TTR. The assay is described as follows: Binding affinity for Compound 1 with aggregated TTR (fluorescence titration, one site specific binding). The settings on record: 5 μM TTR, 4% DMSO/PBS pH 7.4; Compound 1 0 to 10 μM; RFI at λmax(em); FIG. 2. How it is done: A solution of DMSO/PBS (6 μL DMSO in 144 μL PBS, pH 7.4) was prepared as a blank control. Further, a 250 μM solution of Compound 1 in DMSO was prepared. The following samples were then prepared in triplicate while keeping a constant 5 μM TTR concentration in 4% DMSO/PBS:
Emission spectra were taken for each sample and adjusted against the blank over the range of 445-700 nm. RFI at λmax(em) was determined for each sample. RFI was then plotted against the increasing concentration of Compound 1 over the range of 0 to 10 μM using a one site specific binding algorithm. The binding affinity (Kd) was determined to be 0.3+/−0.1 μM. This is illustrated in FIG. 2.

In assay [3] the test system is TTR deposits in human tissues. The assay is described as follows: Staining of FFPE human tissue sections with vitreous amyloid, co-stained with TTR antibody. The settings on record: compound 60 μM, 30 minutes; adjacent sections stained with Congo red and H&E; present-tense example, binding 'contemplated'. The procedure: The following protocol was adopted for staining Formalin-Fixed Paraffin Embedded (FFPE) tissues: • 1. Deparaffinization and hydration of tissue sections: • Pre-heat @ 60° C. 1 hour • Place slides in holders and treat with the clearing agent xylene (paraffin solvent) and a series of graded ethanol (EtOH) as follows: • i. 100% xylene—5 min • ii. 100% xylene—5 min • iii. 50%/50% xylene/100% EtOH—3 min • iv. 100% EtOH—3 min • v. 95% EtOH—3 min • vi. 70% EtOH—3 min • vii. 50% EtOH—3 min • viii. Water—2×3 min. • 2. Antigen retrieval: incubate in 99% formic acid for 5 minutes. • 3. Wash with distilled water for 5 minutes. Repeat this step two times. • 4. Pre-heat 10 mM citrate buffer pH 6.0 to boiling. • 5. Place slides in staining chamber with heated citrate buffer for 20 minutes. • 6. Cool in water bath. Wash with distilled water for 5 minutes. Repeat this step two times. • 7. […]
Sections from tissues of vitreous amyloid with known TTR mutation (paraffin embedded tissue blocks) and an autopsy eyeball with vitreous amyloid (paraffin embedded organ) are respectively stained with hematoxylin and eosin (H&E) and Congo red to mark regions with amyloidosis. […] It is contemplated that Compound 1 binds to TTR deposits in human tissues and undergoes an increase in fluorescence emission in a manner similar to its increase in fluorescence in vitro in the presence of aggregated TTR as described in earlier examples.

Consider `COCCOCCOCCOC(=O)/C(C#N)=C/c1ccc2cc(N3CCCCC3)ccc2c1` [Compound 1], for which the figures for the Fluorescence fold increase in assay [1] (Aggregate A 5 μM), in assay [1] (Aggregate B1 5 μM) and in assay [1] (Aggregate B2 5 μM) were 4.6 fold, 2.3 fold and 2.5 fold, respectively. For the same compound, in assay [1] (Compound 1 4 μM with vs without Aggregate B1 in 1× PBS, FIG. 1), the “increase of relative fluorescence intensity (RFI) in presence of aggregate” value is “about 3.2”. The same compound yielded a Kd in assay [2] of 300 nM. Moreover, in assay [3], the “regions of hyperfluorescence versus areas of amyloidosis” value was “correspond to areas of amyloidosis defined using Congo Red and H&E stains”.
